Assay type in all cases: functional, cell-based
Test [1] is described as follows: Anticoagulant activity assessed as inhibition of arachidonic acid induced rabbit platelet aggregation. The settings on record: Oryctolagus cuniculus.
A short description of test [2]: Anticoagulant activity assessed as inhibition of thrombin induced rabbit platelet aggregation. The settings on record: Oryctolagus cuniculus.
A short description of test [3]: Antiinflammatory activity in neutrophils assessed as inhibition of oxygen radical generation. Conditions: Homo sapiens, Neutrophil.
Test [4] is described as follows: Antiinflammatory activity in neutrophil assessed as inhibition of fMLP induced elastase release. The settings on record: Homo sapiens.

By IC50 is commonly meant the concentration that gives 50% inhibition.

Consider `COC(=O)c1cccc(Cl)c1NC(=O)c1ccccc1Cl`, for which the IC50 was above 100 µM in test [1], above 100 µM in test [2], above 40 µM in test [3] and above 40 µM in test [4].
With `COC(=O)c1ccccc1NC(=O)c1ccccc1F`, the IC50 is 10.8 µM in test [1], above 100 µM in test [2], 0.65 µM in test [3] and above 40 µM in test [4].
For the compound `COC(=O)c1ccccc1NC(=O)c1ccccc1Cl`, the IC50 in test [1] is 11 µM; in test [2] it was above 100 µM; in test [3], 11 µM; in test [4], above 40 µM.
Turning to `COC(=O)c1ccccc1NC(=O)c1cccc(Br)c1`, the IC50 in test [1] was above 100 µM; in test [2], above 100 µM; in test [3], above 40 µM; in test [4], 15.4 µM.
Turning to `COC(=O)c1ccc(Cl)cc1NC(=O)c1ccc(F)cc1`, the IC50 in test [1] is above 100 µM; in test [2] it was above 100 µM; in test [3], above 40 µM; in test [4], above 40 µM.
In the case of `COC(=O)c1ccccc1NC(=O)c1ccccc1C`, the IC50 in test [1] was 16.6 µM; in test [2], above 100 µM; in test [3] it was 9.26 µM; in test [4], above 40 µM.
With `COC(=O)c1ccccc1NC(=O)c1ccccc1OC`, the IC50 in test [1] was 8 µM; in test [2], above 100 µM; in test [3] it was 7.41 µM; in test [4] it was above 40 µM.
Take `COC(=O)c1ccc(Cl)cc1NC(=O)c1ccccc1Cl`: the IC50 in test [1] is 1.1 µM; in test [2] it was above 100 µM; in test [3], above 40 µM; in test [4], above 40 µM.
For `CCOC(=O)c1ccccc1NC(=O)c1ccccc1F`, the IC50 in test [2] is above 100 µM; in test [3] it was 0.17 µM; in test [4], 14.3 µM.
As for `COC(=O)c1ccccc1NC(=O)c1cccc(C)c1`, the IC50 in test [1] is above 100 µM; in test [2] it was above 100 µM; in test [3], above 40 µM; in test [4], 18.3 µM.
As to `CCOC(=O)c1ccc(Cl)cc1NC(=O)c1ccccc1F`, the IC50 in test [1] was 3.8 µM; in test [2], above 100 µM; in test [3], above 40 µM; in test [4], above 40 µM.
With `CCOC(=O)c1ccc(Cl)cc1NC(=O)c1ccccc1Br`, the IC50 in test [1] was 3.6 µM; in test [2] it was above 100 µM; in test [3], above 40 µM; in test [4], above 40 µM.
As to `COC(=O)c1ccccc1NC(=O)c1ccc(F)cc1`, the IC50 in test [1] was above 100 µM; in test [2] it was above 100 µM; in test [3], above 40 µM; in test [4] it was above 40 µM.
As for `COC(=O)c1c(Cl)cccc1NC(=O)c1ccccc1Cl`, the IC50 in test [1] was 80.8 µM; in test [2], above 100 µM; in test [3], above 40 µM; in test [4] it was above 40 µM.
With `CCOC(=O)c1ccc(Cl)cc1NC(=O)c1ccccc1C`, the IC50 was 4.9 µM in test [1], above 100 µM in test [2], above 40 µM in test [3] and 2.83 µM in test [4].
For `CCCOC(=O)c1ccc(Cl)cc1NC(=O)c1ccccc1F`, the IC50 was 1.6 µM in test [1], above 100 µM in test [2], above 40 µM in test [3] and above 40 µM in test [4].
Consider `CCCOC(=O)c1ccc(Cl)cc1NC(=O)c1ccccc1Cl`, for which the IC50 is 0.7 µM in test [1], above 100 µM in test [2], above 40 µM in test [3] and above 40 µM in test [4].
In the case of `COC(=O)c1c(Cl)cccc1NC(=O)c1ccccc1Br`, the IC50 in test [1] was 76.4 µM; in test [2], above 100 µM; in test [3] it was above 40 µM; in test [4], above 40 µM.
Consider `CCCOC(=O)c1ccc(Cl)cc1NC(=O)c1ccccc1Br`, for which the IC50 in test [1] is 3.5 µM; in test [2], above 100 µM; in test [3], above 40 µM; in test [4] it was above 40 µM.
For `COC(=O)c1ccccc1NC(=O)c1ccc(C)cc1`, the IC50 in test [1] is above 100 µM; in test [2], above 100 µM; in test [3], above 40 µM; in test [4], above 40 µM.
`COC(=O)c1ccc(Cl)cc1NC(=O)c1ccccc1C`: the IC50 in test [1] was 4.3 µM; in test [2], above 100 µM; in test [3] it was above 40 µM; in test [4] it was above 40 µM.
For `COC(=O)c1ccccc1NC(=O)c1ccc(Cl)cc1`, the IC50 in test [1] is above 100 µM; in test [2], above 100 µM; in test [3] it was above 40 µM; in test [4] it was above 40 µM.
As to `CC(=O)c1ccccc1NC(=O)c1ccccc1F`, the IC50 was above 100 µM in test [2], 24.1 µM in test [3] and above 40 µM in test [4].
As for `COC(=O)c1cccc(Cl)c1NC(=O)c1ccccc1Br`, the IC50 was above 100 µM in test [1], above 100 µM in test [2], above 40 µM in test [3] and above 40 µM in test [4].
As for `COC(=O)c1ccc(Cl)cc1NC(=O)c1ccc(C)cc1`, the IC50 in test [1] was above 100 µM; in test [2], above 100 µM; in test [3] it was above 40 µM; in test [4], above 40 µM.
With `COC(=O)c1ccc(Cl)cc1NC(=O)c1ccc(OC)cc1`, the IC50 in test [1] was above 100 µM; in test [2], above 100 µM; in test [3] it was above 40 µM; in test [4] it was above 40 µM.
As to `COC(=O)c1ccccc1NC(=O)c1ccc(Br)cc1`, the IC50 is above 100 µM in test [1], above 100 µM in test [2], above 40 µM in test [3] and above 40 µM in test [4].
With `COC(=O)c1ccccc1NC(=O)c1ccc(OC)cc1`, the IC50 in test [1] is above 100 µM; in test [2] it was above 100 µM; in test [3], above 40 µM; in test [4], above 40 µM.
For `COC(=O)c1cccc(Cl)c1NC(=O)c1ccccc1F`, the IC50 in test [1] was above 100 µM; in test [2] it was above 100 µM; in test [3], above 40 µM; in test [4] it was above 40 µM.
Take `COC(=O)c1ccccc1NC(=O)c1cccc(OC)c1`: the concentration for half-maximal inhibition (IC50) was above 100 µM in test [1], above 100 µM in test [2], above 40 µM in test [3] and above 40 µM in test [4].
As for `COC(=O)c1cccc(Cl)c1NC(=O)c1ccccc1C`, the half-maximal inhibitory concentration (IC50) in test [1] was above 100 µM; in test [2] it was above 100 µM; in test [3], above 40 µM; in test [4], above 40 µM.
On to `COC(=O)c1ccccc1NC(=O)c1cccc(Cl)c1`, for which the IC50 was above 100 µM in test [1], above 100 µM in test [2], above 40 µM in test [3] and above 40 µM in test [4].
For `COC(=O)c1ccccc1NC(=O)c1cccc(F)c1`, the IC50 in test [1] was above 100 µM; in test [2] it was above 100 µM; in test [3], 10.6 µM; in test [4], above 40 µM.
Turning to `CCOC(=O)c1ccc(Cl)cc1NC(=O)c1ccccc1OC`, the IC50 was 4.9 µM in test [1], above 100 µM in test [2], above 40 µM in test [3] and 4.31 µM in test [4].
For the compound `COC(=O)c1cccc(Cl)c1NC(=O)c1ccccc1OC`, the IC50 in test [1] was 66.6 µM; in test [2] it was above 100 µM; in test [3], above 40 µM; in test [4] it was above 40 µM.
With `CCCOC(=O)c1ccc(Cl)cc1NC(=O)c1ccccc1OC`, the IC50 in test [1] is 23.4 µM; in test [2], above 100 µM; in test [3], above 40 µM; in test [4], above 40 µM.
For the compound `COC(=O)c1ccccc1NC(=O)c1ccccc1Br`, the 50% inhibitory concentration (IC50) was 22.9 µM in test [1], above 100 µM in test [2], 12 µM in test [3] and above 40 µM in test [4].
The corresponding values for `COC(=O)c1ccc(Cl)cc1NC(=O)c1ccccc1F` are 2.2 µM, above 100 µM, above 40 µM and above 40 µM.
For the compound `COC(=O)c1c(Cl)cccc1NC(=O)c1ccccc1OC`, the IC50 is 62.3 µM in test [1], above 100 µM in test [2], above 40 µM in test [3] and above 40 µM in test [4].
Take `CCOC(=O)c1ccc(Cl)cc1NC(=O)c1ccccc1Cl`: the IC50 in test [1] is 0.8 µM; in test [2], above 100 µM; in test [3] it was above 40 µM; in test [4], above 40 µM.
In the case of `COC(=O)c1ccc(Cl)cc1NC(=O)c1ccccc1Br`, the IC50 is 2.6 µM in test [1], above 100 µM in test [2], above 40 µM in test [3] and above 40 µM in test [4].
For the compound `COC(=O)c1ccc(Cl)cc1NC(=O)c1ccc(Cl)cc1`, the IC50 was above 100 µM in test [1], above 100 µM in test [2], above 40 µM in test [3] and above 40 µM in test [4].
As for `COC(=O)c1ccc(Cl)cc1NC(=O)c1ccc(Br)cc1`, the IC50 is above 100 µM in test [1], above 100 µM in test [2], above 40 µM in test [3] and above 40 µM in test [4].
In the case of `COC(=O)c1c(Cl)cccc1NC(=O)c1ccccc1F`, the 50% inhibitory concentration (IC50) is 78.2 µM in test [1], above 100 µM in test [2], above 40 µM in test [3] and above 40 µM in test [4].
Regarding `COC(=O)c1ccc(Cl)cc1NC(=O)c1ccccc1OC`, the IC50 is 2.2 µM in test [1], above 100 µM in test [2], above 40 µM in test [3] and above 40 µM in test [4].
On to `COC(=O)c1c(Cl)cccc1NC(=O)c1ccccc1C`, for which the IC50 is above 100 µM in test [1], above 100 µM in test [2], above 40 µM in test [3] and above 40 µM in test [4].
As for `CCCOC(=O)c1ccc(Cl)cc1NC(=O)c1ccccc1C`, the IC50 in test [1] is 2.2 µM; in test [2] it was above 100 µM; in test [3] it was above 40 µM; in test [4] it was above 40 µM.
With `CC(=O)Oc1ccccc1C(=O)O` [ASPIRIN], the IC50 in test [1] is 152 µM; in test [2], above 100 µM; in test [3] it was above 40 µM; in test [4], above 40 µM.
With `c1ccc2c(c1)[I+]c1ccccc1-2` [DIPHENYLENEIODONIUM], in test [3], the IC50 is 0.86 µM.
For the compound `COc1ccc2c(c1)c(CC(=O)O)c(C)n2C(=O)c1ccc(Cl)cc1` [INDOMETHACIN], the IC50 is 0.14 µM in test [1], above 100 µM in test [2], above 40 µM in test [3] and above 40 µM in test [4].
Turning to `O=S(=O)(F)Cc1ccccc1` [PHENYLMETHYLSULFONYLFLUORIDE], the IC50 in test [4] turned out to be 131 µM.

For the origin of these results see ChEMBL document CHEMBL1139089, “The evaluation and structure-activity relationships of 2-benzoylaminobenzoic esters and their analogues as anti-inflammatory and anti-platelet aggregation agents” (Bioorg Med Chem Lett, 2007).
